Reference: ChEMBL document CHEMBL2401616, “A novel amalgamation of 1,2,3-triazoles, piperidines and thieno pyridine rings and evaluation of their antifungal activity” (2013)
Values after ≈ are worked out from the molar mass of the structure shown. Active and inactive are the calls of the source. The calls are words filed in the database; no cut-off is given here.

Columns and labels:
Aspergillus niger [1] = experiment: Antifungal activity against Aspergillus niger NCIM 1196 assessed as growth inhibition by agar dilution method; assay type: functional
Cryptococcus neoformans [2] = experiment: Antifungal activity against Cryptococcus neoformans NCIM 576 assessed as growth inhibition by agar dilution method; assay type: functional
Fusarium oxysporum [3] = experiment: Antifungal activity against Fusarium oxysporum NCIM 1332 assessed as growth inhibition by agar dilution method; assay type: functional
Aspergillus flavus [4] = experiment: Antifungal activity against Aspergillus flavus NCIM 539 assessed as growth inhibition by agar dilution method; assay type: functional
Candida albicans = experiment: Antifungal activity against Candida albicans NCIM 3471 assessed as growth inhibition by agar dilution method; assay type: functional
Fusarium oxysporum [5] = experiment: Antifungal activity against Fusarium oxysporum NCIM 1332 assessed as growth inhibition up to 200 ug/mL by agar dilution method; assay type: functional, organism-based
Aspergillus niger [6] = experiment: Antifungal activity against Aspergillus niger NCIM 1196 assessed as growth inhibition up to 200 ug/mL by agar dilution method; assay type: functional, organism-based
Cryptococcus neoformans [7] = experiment: Antifungal activity against Cryptococcus neoformans NCIM 576 assessed as growth inhibition up to 200 ug/mL by agar dilution method; assay type: functional, organism-based
Aspergillus flavus [8] = experiment: Antifungal activity against Aspergillus flavus NCIM 539 assessed as growth inhibition up to 200 ug/mL by agar dilution method; assay type: functional, organism-based

| MIC (Aspergillus niger [1]) | MIC (Cryptococcus neoformans [2]) | MIC (Fusarium oxysporum [3]) | MIC (Aspergillus flavus [4]) | MIC (Candida albicans) | SMILES | growth inhibition (GI) (Fusarium oxysporum [5]) | growth inhibition (GI) (Aspergillus niger [6]) | growth inhibition (GI) (Cryptococcus neoformans [7]) | growth inhibition (GI) (Aspergillus flavus [8]) |
| --- | --- | --- | --- | --- | --- | --- | --- | --- | --- |
| 37.5 µg/mL (≈ 81.9 µM) | 40 µg/mL (≈ 87.4 µM) | 70 µg/mL (≈ 153 µM) | 45 µg/mL (≈ 98.3 µM) | 60 µg/mL (≈ 131 µM) | Cc1ccc(S(=O)(=O)N2CCC(n3cc(CN4CCc5sccc5C4)nn3)CC2)cc1 |  |  |  |  |
| 42.5 µg/mL (≈ 96.2 µM) | 45 µg/mL (≈ 102 µM) | 40 µg/mL (≈ 90.5 µM) | 40 µg/mL (≈ 90.5 µM) | 45 µg/mL (≈ 102 µM) | O=C(c1ccc(Cl)cc1)N1CCC(n2cc(CN3CCc4sccc4C3)nn2)CC1 |  |  |  |  |
| 47.5 µg/mL (≈ 143 µM) | 150 µg/mL (≈ 453 µM) | 100 µg/mL (≈ 302 µM) | 35 µg/mL (≈ 106 µM) | 90 µg/mL (≈ 272 µM) | CCN1CCC(n2cc(CN3CCc4sccc4C3)nn2)CC1 |  |  |  |  |
| 40 µg/mL (≈ 105 µM) | 25 µg/mL (≈ 65.5 µM) | 30 µg/mL (≈ 78.6 µM) | 40 µg/mL (≈ 105 µM) | 50 µg/mL (≈ 131 µM) | CS(=O)(=O)N1CCC(n2cc(CN3CCc4sccc4C3)nn2)CC1 |  |  |  |  |
|  | 100 µg/mL (≈ 245 µM) |  | 65 µg/mL (≈ 159 µM) | 90 µg/mL (≈ 221 µM) | O=C(c1ccccc1)N1CCC(n2cc(CN3CCc4sccc4C3)nn2)CC1 | inactive | inactive |  |  |
| 100 µg/mL (≈ 254 µM) | 90 µg/mL (≈ 229 µM) | 75 µg/mL (≈ 191 µM) | 60 µg/mL (≈ 152 µM) | 50 µg/mL (≈ 127 µM) | c1ccc(CN2CCC(n3cc(CN4CCc5sccc5C4)nn3)CC2)cc1 |  |  |  |  |
| 100 µg/mL (≈ 330 µM) | 100 µg/mL (≈ 330 µM) | 90 µg/mL (≈ 297 µM) | 60 µg/mL (≈ 198 µM) | 50 µg/mL (≈ 165 µM) | c1cc2c(s1)CCN(Cc1cn(C3CCNCC3)nn1)C2 |  |  |  |  |
|  |  | 60 µg/mL (≈ 167 µM) | 30 µg/mL (≈ 83.4 µM) | 50 µg/mL (≈ 139 µM) | CCC(=O)N1CCC(n2cc(CN3CCc4sccc4C3)nn2)CC1 |  | inactive | inactive |  |
| 47.5 µg/mL (≈ 127 µM) | 150 µg/mL (≈ 402 µM) | 100 µg/mL (≈ 268 µM) | 35 µg/mL (≈ 93.7 µM) | 100 µg/mL (≈ 268 µM) | CC(C)C(=O)N1CCC(n2cc(CN3CCc4sccc4C3)nn2)CC1 |  |  |  |  |
| 100 µg/mL (≈ 289 µM) |  | 45 µg/mL (≈ 130 µM) |  | 40 µg/mL (≈ 116 µM) | CC(=O)N1CCC(n2cc(CN3CCc4sccc4C3)nn2)CC1 |  |  | inactive | inactive |
|  |  | 70 µg/mL (≈ 220 µM) | 40 µg/mL (≈ 126 µM) | 40 µg/mL (≈ 126 µM) | CN1CCC(n2cc(CN3CCc4sccc4C3)nn2)CC1 |  | inactive | inactive |  |

| SMILES | MIC (Aspergillus niger [1]) | MIC (Cryptococcus neoformans [2]) | MIC (Fusarium oxysporum [3]) | MIC (Aspergillus flavus [4]) | MIC (Candida albicans) | growth inhibition (GI) (Fusarium oxysporum [5]) | growth inhibition (GI) (Aspergillus niger [6]) | growth inhibition (GI) (Cryptococcus neoformans [7]) | growth inhibition (GI) (Aspergillus flavus [8]) |
| --- | --- | --- | --- | --- | --- | --- | --- | --- | --- |
| Clc1ccc(COC(Cn2ccnc2)c2ccc(Cl)cc2Cl)c(Cl)c1 (stereo not given) [MICONAZOLE] | 12.5 µg/mL (≈ 30 µM) | 25 µg/mL (≈ 60.1 µM) | 25 µg/mL (≈ 60.1 µM) | 12.5 µg/mL (≈ 30 µM) | 25 µg/mL (≈ 60.1 µM) |  |  |  |  |
